Measurements as given in ChEMBL document CHEMBL4513144, “CO-ADD screening of University of Central Lancashire (UK) compounds”.
In brackets after ≈: the same amount, converted by molar mass.

Legend:
[1] = tested on: HEK293; test: cells; format: functional; settings: Homo sapiens, ATCC CRL1573, HEK293; ASSAY_TEST Inhibition of Cell Viability; detection method Resazurin; Fluorescence (ex560/em590); MEDIA DMEM with 10% FBS; plate type 384well; TC; CORNING #3712; time 18 hr
[2] = tested on: Acinetobacter baumannii; test: microbe, parasite or virus in culture; settings: ATCC 19606, 18 h, ASSAY_TEST Inhibition of Bacterial Growth, detection method Absorption (OD600), MEDIA CAMHB, plate type 384well, NBS, CORNING #3640
Description: Antibacterial activity against Acinetobacter baumannii ATCC 19606 (CO-ADD:GN_034); MIC in CAMBH media using NBS plates, by OD600

[3] = tested on: Escherichia coli; test: microbe, parasite or virus in culture; settings: ATCC 25922, 18 h, ASSAY_TEST Inhibition of Bacterial Growth, detection method Absorption (OD600), MEDIA CAMHB, plate type 384well, NBS, CORNING #3640
Description: Antibacterial activity against Escherichia coli ATCC 25922 (CO-ADD:GN_001); MIC in CAMBH media using NBS plates, by OD(600)

[4] = tested on: Cryptococcus neoformans
Description: Antifungal activity against Cryptococcus neoformans H99 ATCC 208821 (CO-ADD:FG_002); MIC in YNB media using NBS plates, by Resazurin OD(600-570)

[5] = tested on: Staphylococcus aureus; test: microbe, parasite or virus in culture; settings: ATCC 43300, 18 h, ASSAY_TEST Inhibition of Bacterial Growth, detection method Absorption (OD600), MEDIA CAMHB, plate type 384well, NBS, CORNING #3640
Description: Antibacterial activity against Staphylococcus aureus MRSA ATCC 43300 (CO-ADD:GP_020); MIC in CAMBH media, using NBS plates, by OD(600)

[6] = tested on: Pseudomonas aeruginosa; test: microbe, parasite or virus in culture; settings: ATCC 27853, 18 h, ASSAY_TEST Inhibition of Bacterial Growth, detection method Absorption (OD600), MEDIA CAMHB, plate type 384well, NBS, CORNING #3640
Description: Antibacterial activity against Pseudomonas aeruginosa ATCC 27853 (CO-ADD:GN_042); MIC in CAMBH media using NBS plates, by OD(600)

[7] = tested on: Candida albicans; test: microbe, parasite or virus in culture; settings: ATCC 90028, ASSAY_TEST Inhibition of Fungal Growth, detection method Absorption (OD530), plate type 384well, NBS, CORNING #3640
Description: Antifungal activity against Candida albicans ATCC 90028 (CO-ADD:FG_001); MIC in YNB media using NBS plates, by OD630

[8] = tested on: Klebsiella pneumoniae; test: microbe, parasite or virus in culture; settings: ATCC 700603, 18 h, ASSAY_TEST Inhibition of Bacterial Growth, detection method Absorption (OD600), MEDIA CAMHB, plate type 384well, NBS, CORNING #3640
Description: Antibacterial activity against Klebsiella pneumoniae MDR ATCC 70063 (CO-ADD:GN_003); MIC in CAMBH media using NBS plates, by OD(600)

Oc1ccccc1-c1cc2ccccc2[nH]1 [2-(2'-HYDROXYPHENYL)-1H-INDOLE]
CC50 [1]: 0.256 µg/mL (≈ 1.22 µM)
MIC [2]: > 32 µg/mL
MIC [3]: > 32 µg/mL
MIC [4]: > 32 µg/mL
MIC [5]: > 32 µg/mL
MIC [6]: > 32 µg/mL
MIC [7]: > 32 µg/mL
MIC [8]: > 32 µg/mL
